Results reported in patent publication US6348445B1, “Biologically active peptides with reduced toxicity in animals and a method for preparing same” (priority 1992, dated 2002).
Where two headings read alike, the source gives them in different places. *1 amine or outer side, *2 acyl side, *3 side chain or, on linkers, in order; H or OH if unused. Where a SMILES comes first, the peptide text is derived from it. Where no end group is shown, it is not given here. [ ]: non-standard residue; d: D form. The star is where a group is joined. hArg = N=C(N)NCCCC[C@H](N)C(=O)O; Suc = O=C(CCC(=O)[*:2])[*:1]; Octanoyl = CCCCCCCC(=O)*

Columns and labels:
[1] = test system: E. coli ATCC strain 25922; experiment: Minimal Inhibitory Concentration, microtiter broth dilution; assay type: cell-based
How it was run: (§1)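 Broth microdilution per NCCLS M7-T2: final peptide levels 0.25 to 256 μg/ml (twofold steps), inoculum 1-5×10^5 CFUs/ml in full-strength Mueller Hinton broth. MIC read as lowest concentration leaving the well clear after 16-20 hours at 37° C.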

[2] = test system: C. albicans; assay type: cell-based
How it was run: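 Broth microdilution: mid-log organisms at 1-5×10^5 CFU/ml in Mueller Hinton broth exposed to 2-fold peptide series (0.25–256 μg/ml final). After 16-20 h at 37° C, MIC read as the lowest concentration leaving the well clear.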

[3] = test system: P. aeruginosa strain ATCC 27853; assay type: cell-based
How it was run: as §1

[4] = test system: S.aureus strain ATCC 25923; experiment: Minimal Inhibitory Concentration, microtiter broth dilution; assay type: cell-based; settings: Mueller Hinton broth, 16-20 hours at 37° C.
Excerpt: Table I, which follows, indicates the Minimal Inhibitory Concentration (MIC) in […] of various peptides against S.aureus strain ATCC 25923(S), P. aeruginosa strain ATCC 27853(P), E. coli ATCC strain 25922(E), and C. 4albicans (CA). […] The peptides are unsubstituted at the N-terminal; substituted with an acetyl group at the N-terminal, as indicated by Ac-; substituted with an octanoyl group at the N-terminal, as indicated by Oct-; substituted with spinogosine, as indicated by Sph-; substituted with a succinyl group, as indicated by Suc-; substituted with a hexanoyl group, as indicated by Hex-; substituted with a heptanoyl group, as indicated by Hep-; substituted with a valeryl group, as indicated by Val-; substituted with a myristryl group, as indicated by Myr-; or substituted with an ibuprofyl group, as indicated by Ibu-;
The procedure for the anti-bacterial assay is based upon the guidelines of the National Committee for Clinical Laboratory Standards, Document M7-T2, Volume 8, No. 8, 1988, which document is entirely incorporated herein by reference.
Stock solutions of peptides, with and without the appropriate substitutions, were prepared at a concentration of 512 μg/ml in sterile deionized distilled water and stored at −70° C.
The stock peptide solution was diluted in serial dilutions (1:2) down the wells of a microtiter plate so that the final concentrations of peptides in the wells were 0.25, 0.50, 1, 2, 4, 8, 16, 32, 64, 128 and 256 μg/ml. 1-5×10^5 CFUs/ml of either S. aureus ATCC 25923, E. coli ATCC 25922, P. aeruginosa ATCC 27853, or C. albicans, were added to the wells in full strength Mueller Hinton broth (BBL 11443) from a mid-log culture. The inoculum was standardized spectrophotometrically at 600 nm and was verified by colony counts. The plates were incubated for 16-20 hours at 37° C., and the minimal inhibitory concentration (MIC) for each peptide was determined. Minimal inhibitory concentration is defined as the lowest concentration of peptide which produces a clear well in the microtiter plate. The minimal inhibitory concentration of each of the peptides with and/or without the appropriate substitutions is given in Table I below.

[5] = test system: P. gingivalis; settings: anaerobic, 24-48 hours
[6] = test system: S. mutans; experiment: anaerobic anti-microbial susceptibility test (MIC); assay type: cell-based; design: unit not given here; settings: 24-48 hours
[7] = test system: A. viscosus; experiment: anaerobic anti-microbial susceptibility test (MIC); assay type: cell-based; settings: 24-48 hours
[8] = E. coli ATCC strain 25922, Table I
[9] = P. aeruginosa strain ATCC 27853, Table I

Compound	Minimal Inhibitory Concentration E [1, 8] [µg/mL]	Minimal Inhibitory Concentration CA [2] [µg/mL]	Minimal Inhibitory Concentration P ([3]; ATCC 27853) [µg/mL]	Minimal Inhibitory Concentration S [4] [µg/mL]	MIC P. gingivalis (strain) 9-14K-1 [5]	MIC P. gingivalis (strain) 381 [5] [μl/ml]	MIC P. gingivalis (strain) 450 [5] [μl/ml]	MIC P. gingivalis (strain) A7A1-28 [5] [μl/ml]	MIC P. gingivalis (strain) FAY-19M-1 [5]	Minimal Inhibitory Concentration E ([1]; ATCC strain 25922) [µg/mL]	MIC S. mutans [6]	Minimal Inhibitory Concentration P [3, 9]	MIC A. viscos [7] [μl/ml]	Minimal Inhibitory Concentration CA ([2]; C. albicans, Table I) [µg/mL]
CCCCCCCC(=O)N[C@@H](CCCCN)C(=O)N[C@@H](Cc1c[nH]c2ccccc12)C(=O)N[C@@H](CCCCN)C(=O)N[C@@H](CC(C)C)C(=O)N[C@@H](Cc1ccccc1)C(=O)N[C@@H](CCCCN)C(=O)N[C@@H](CCCCN)C(=O)N[C@H](C(=O)N[C@@H](CCC(=O)O)C(=O)N[C@@H](CCCCN)C(=O)N[C@H](C(N)=O)C(C)C)[C@@H](C)CC [Oct-(SEQ ID NO: 136)-NH2] (Octanoyl-KWKLFKKIEKV-NH2)	256	256	64	256	–	–	–	–	–	–	–	–	–	–
H-KIAGKIAKIAGKIAKIAGKIA-NH2 [(SEQ ID NO: 27)-NH2, (Lys Ile Ala Gly Lys Ile Ala)3]	–	–	–	–	8,128 μl/ml	128	4	16	64 μl/ml	8	16	64,128 μg/ml	16	–
CCCCCCCC(=O)N[C@@H](CCCCN)C(=O)N[C@H](C(=O)N[C@@H](C)C(=O)NCC(=O)N[C@@H](CCCCN)C(=O)N[C@H](C(=O)N[C@@H](C)C(=O)N[C@@H](CCCCN)C(=O)N[C@H](C(=O)N[C@@H](C)C(=O)NCC(=O)N[C@@H](CCCCN)C(=O)N[C@H](C(=O)N[C@@H](C)C(=O)N[C@@H](CCCCN)C(=O)N[C@H](C(=O)N[C@@H](C)C(=O)NCC(=O)N[C@@H](CCCCN)C(=O)N[C@H](C(=O)N[C@@H](C)C(=O)O)[C@@H](C)CC)[C@@H](C)CC)[C@@H](C)CC)[C@@H](C)CC)[C@@H](C)CC)[C@@H](C)CC [Oct-(SEQ ID NO: 27)-OH] (Octanoyl-KIAGKIAKIAGKIAKIAGKIA-OH)	–	32	8	–	2 μl/ml	2	1	1	2 μl/ml	4	16	–	32	–
(Lys Ile Ala Lys Lys Ile Ala)3 (KIAKKIAKIAKKIAKIAKKIA-NH2) [(SEQ ID NO. 86)-NH2, unsubstituted at the N-terminal, C-terminal amide]	–	–	–	–	8 μl/ml	8	4	2	8,128 μl/ml	–	4	–	16	–
CCCCCCCC(=O)N[C@@H](CCCCN)C(=O)N[C@H](C(=O)N[C@@H](C)C(=O)N[C@@H](CCCCN)C(=O)N[C@@H](CCCCN)C(=O)N[C@H](C(=O)N[C@@H](C)C(=O)N[C@@H](CCCCN)C(=O)N[C@H](C(=O)N[C@@H](C)C(=O)N[C@@H](CCCCN)C(=O)N[C@@H](CCCCN)C(=O)N[C@H](C(=O)N[C@@H](C)C(N)=O)[C@@H](C)CC)[C@@H](C)CC)[C@@H](C)CC)[C@@H](C)CC [Oct-(SEQ ID NO: 153)-NH2] (Octanoyl-KIAKKIAKIAKKIA-NH2)	32	–	–	8	–	–	–	–	–	–	–	8 µg/mL	–	64
CCCCCCCC(=O)N[C@@H](CCCCNC(=N)N)C(=O)N[C@H](C(=O)N[C@@H](C)C(=O)NCC(=O)N[C@@H](CCCCNC(=N)N)C(=O)N[C@H](C(=O)N[C@@H](C)C(=O)N[C@@H](CCCCNC(=N)N)C(=O)N[C@H](C(=O)N[C@@H](C)C(=O)NCC(=O)N[C@@H](CCCCNC(=N)N)C(=O)N[C@H](C(=O)N[C@@H](C)C(=O)N[C@@H](CCCCNC(=N)N)C(=O)N[C@H](C(=O)N[C@@H](C)C(=O)NCC(=O)N[C@@H](CCCCNC(=N)N)C(=O)N[C@H](C(=O)N[C@@H](C)C(N)=O)[C@@H](C)CC)[C@@H](C)CC)[C@@H](C)CC)[C@@H](C)CC)[C@@H](C)CC)[C@@H](C)CC [Oct-(SEQ ID NO: 66)-NH2] (Octanoyl-[hArg]IAG[hArg]IA[hArg]IAG[hArg]IA[hArg]IAG[hArg]IA-NH2)	–	256	16	–	2 μl/ml	4	2	8	2 μl/ml	8	32	–	16	–
CCCCCCCC(=O)N[C@@H](CCCCN)C(=O)N[C@@H](CCCCN)C(=O)N[C@@H](CC(C)C)C(=O)N[C@@H](C)C(=O)N[C@@H](CCCCN)C(=O)N[C@@H](CC(C)C)C(=O)N[C@@H](C)C(=O)N[C@@H](CCCCN)C(=O)N[C@@H](CCCCN)C(=O)N[C@@H](CC(C)C)C(=O)N[C@@H](C)C(N)=O [Oct-(SEQ ID NO: 123)-NH2] (Octanoyl-KKLAKLAKKLA-NH2)	32	–	–	32	–	–	–	–	–	–	–	16 µg/mL	–	32
CCCCCCCC(=O)N[C@@H](CCC(=O)O)C(=O)N[C@@H](CCCCN)C(=O)N[C@@H](CCCCN)C(=O)N[C@@H](CC(C)C)C(=O)N[C@@H](CC(C)C)C(=O)N[C@@H](CCCCN)C(=O)N[C@@H](CCCCN)C(=O)N[C@@H](CC(C)C)C(=O)N[C@@H](CCCCN)C(=O)N[C@@H](CCCCN)C(=O)N[C@@H](CC(C)C)C(N)=O [Oct-(SEQ ID NO: 127)-NH2] (Octanoyl-EKKLLKKLKKL-NH2)	–	128	32	–	–	–	–	–	–	32	–	–	–	–
CC[C@H](C)[C@H](NC(=O)[C@H](CCCCN)NC(=O)CNC(=O)[C@H](C)NC(=O)[C@@H](NC(=O)[C@H](CCCCN)NC(=O)[C@H](C)NC(=O)[C@@H](NC(=O)[C@H](CCCCN)NC(=O)CNC(=O)[C@H](C)NC(=O)[C@@H](NC(=O)[C@H](CCCCN)NC(=O)[C@H](C)NC(=O)[C@@H](NC(=O)[C@H](CCCCN)NC(=O)CNC(=O)[C@H](C)NC(=O)[C@@H](NC(=O)[C@H](CCCCN)NC(=O)CCC(=O)O)[C@@H](C)CC)[C@@H](C)CC)[C@@H](C)CC)[C@@H](C)CC)[C@@H](C)CC)C(=O)N[C@@H](C)C(N)=O [Suc-((SEQ ID NO: 27)-NH2] (Suc-KIAGKIAKIAGKIAKIAGKIA-NH2)	–	128	>256	–	–	–	–	–	–	32	–	–	–	–
CC[C@H](C)[C@H](NC(=O)[C@H](CCCCNC(=N)N)NC(=O)CNC(=O)[C@H](C)NC(=O)[C@@H](NC(=O)[C@H](CCCCNC(=N)N)NC(=O)[C@H](C)NC(=O)[C@@H](NC(=O)[C@H](CCCCNC(=N)N)NC(=O)CNC(=O)[C@H](C)NC(=O)[C@@H](NC(=O)[C@H](CCCCNC(=N)N)NC(=O)[C@H](C)NC(=O)[C@@H](NC(=O)[C@H](CCCCNC(=N)N)NC(=O)CNC(=O)[C@H](C)NC(=O)[C@@H](NC(=O)[C@@H](N)CCCCNC(=N)N)[C@@H](C)CC)[C@@H](C)CC)[C@@H](C)CC)[C@@H](C)CC)[C@@H](C)CC)C(=O)N[C@@H](C)C(N)=O [(SEQ ID NO: 66)-NH2, (Har Ile Ala Gly Har Ile Ala)3] (H-[hArg]IAG[hArg]IA[hArg]IAG[hArg]IA[hArg]IAG[hArg]IA-NH2)	–	64	32	–	2 μl/ml	16	4	4	8 μl/ml	32	8	–	8	–
H-GIKKFLKKAGKFGKAF-NH2 [(SEQ ID NO: 149)-NH2]	–	64	32	–	–	–	–	–	–	32	–	–	–	–
